In patent US7763612B2, “Therapeutic amine-arylsulfonamide conjugate compounds” (Algebra, Inc., priority 2006, dated 2010):
Like-named read-outs stand apart in the source and are kept apart here.

What was measured:
[1] = tested on: tetrabenazine-induced behavioral effects; test: Antitetrabenazine activity in the mouse (prevention of tetrabenazine-induced behavioral effects); assay type: in vivo; details: for ED50: Mus musculus, ip, read-out: ED50 (mg/kg i.p.), antitetrabenazine activity
Text: Substances having an antidepressant action antagonize a number of the behavioral effects induced by tetrabenazine including locomotor activity, ptosis and hypothermia. Tetrabenazine-induced behavioral effects can be quantified using a composite index, X, where X=(1−ptosis score)/(activity score*[Temp., treated/Temp., control]) as described by Cooper, B. R., J. L. Howard, and F. E. Soroko, Animal models used in prediction of antidepressant effects in man, Journal of Clinical Psychiatry 44:63-6, 1983). 50% effective dose (ED50) values indicate a dose of compound with ‘antitetrabenazine activity’ at which the composite index, X, induced by 20 mg/kg of tetrabenazine intraperitoneally is reduced 50%.
Prevention of tetrabenazine-induced behavioral effects were measured using a modification of the method of Vernier et al., First Hahnemann Symposium on Psychosomatic Medicine, ed. Nodim and Moyer, pub Lea and Febiger, Philadelphia 1962 as described previously (Cooper, B. R., J. L. Howard, and F. E. Soroko, Animal models used in prediction of antidepressant effects in man, Journal of Clinical Psychiatry 44:63-6, 1983). Mice, groups of 12 CD1 males each, were injected intraperitoneally (i.p.) with the compounds (1420), (20a) and furosemide (10) suspended in a 0.5% 4000-centipoise methyl cellulose solution at 3 mg/mL or vehicle. All injections were administered at a vehicle volume of 10 ml/kg. The 50% effective dose (ED50) of each compound was determined by linear regression analysis of log probit plots of dose effect curves and is reported in Table 3: […]

[2] = tested on: Mice, CD1 males; test: Safety and toxicity dose-ranging study, observation for seizures and deaths after oral administration; assay type: in vivo, mouse; details: CD1 male mice, p.o., doses up to 300 mg/kg, observed for one hour
Procedure: Safety and Toxicity: Dose-ranging studies were performed to determine the range of safe doses for compound (1420). […] Mice, groups of 6 CD1 males each, were administered compound suspended in a 0.5% 4000-centipoise methyl cellulose vehicle at a volume of 10 mL/kg p.o. using a 22-gauge stainless steel mouse feeding tube and 1-mL syringe at doses up to 300 mg/kg.

[3] = CD1 male mice, i.p., dose at which composite index X induced by 20 mg/kg tetrabenazine i.p. is reduced 50%

| Structure (SMILES) | inhibition of tetrabenazine-induced behavioral effects ([1]; CD1 male mice, i.p.) | ED50 [1] [mg/kg] | serious adverse events (seizures and deaths) [2] | ED50 [1, 3] [mg/kg] |
| --- | --- | --- | --- | --- |
| C[C@@H]1CO[C@@](O)(c2cc(F)cc(F)c2)[C@H](C)N1 [20a, (2S,3S,5R)-2-(3,5-difluorophenyl)-2-hydroxy-3,5-dimethylmorpholine] | inhibited tetrabenazine-induced behavioral effects | 0.2 |  |  |
| C[C@@H]1CO[C@@](O)(c2cc(F)cc(F)c2)[C@H](C)N1C(=O)OCOC(=O)c1cc(S(N)(=O)=O)c(Cl)cc1NCc1ccco1 [compound 1420, (2S,3S,5R)-4-[5-(aminosulfonyl)-4-chloro-2-[(2-furanylmethyl)amino]benzoyloxymethoxycarbonyl]-2-(3,5-difluorophenyl)-3,5-dimethyl-2-morpholinol] | inhibited tetrabenazine-induced behavioral effects |  | No seizures or deaths were observed in any animals at any dose | 3.6 |
| NS(=O)(=O)c1cc(C(=O)O)c(NCc2ccco2)cc1Cl [furosemide, 5-(aminosulfonyl)-4-chloro-2-[(2-furanylmethyl)amino]benzoic acid] |  |  |  | > 30 |
